Data on 18 compounds can be found in patent US20240217966A1, “PHARMACEUTICAL COMPOSITION CONTAINING GLP-1 RECEPTOR AGONIST HAVING FUSED RING” (Shionogi & Co., Ltd., priority 2021, published 2024).

This test deals with T1, Human GLP-1 receptor (Homo sapiens, UniProt P43220).
T1 construct: expressed in transfected cells
The test is described as follows: Measurement of GLP-1 receptor agonist activity (cAMP assay). The format is cell-based. The settings on record: cAMP increase in GLP-1 R/CHO-K1 cells, 2 nM human GLP-1 (7-36) = 100%, DMSO only = 0%; for Emax: CHO-K1, maximum effect, read-out: Emax. An outline of the steps: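 hGLP-1R/CHO-K1 cells in HBSS with 0.1% BSA, 20 mM HEPES, 0.1 mM IBMX and 0.2 mM RO20-1724 exposed to compound plus forskolin (400 μM stock) for 1 h at 37 °C. Intracellular cAMP read by HTRF (cAMP-d2/anti-cAMP cryptate, 1 h at room temperature).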

T1 sequence (P43220 24-463): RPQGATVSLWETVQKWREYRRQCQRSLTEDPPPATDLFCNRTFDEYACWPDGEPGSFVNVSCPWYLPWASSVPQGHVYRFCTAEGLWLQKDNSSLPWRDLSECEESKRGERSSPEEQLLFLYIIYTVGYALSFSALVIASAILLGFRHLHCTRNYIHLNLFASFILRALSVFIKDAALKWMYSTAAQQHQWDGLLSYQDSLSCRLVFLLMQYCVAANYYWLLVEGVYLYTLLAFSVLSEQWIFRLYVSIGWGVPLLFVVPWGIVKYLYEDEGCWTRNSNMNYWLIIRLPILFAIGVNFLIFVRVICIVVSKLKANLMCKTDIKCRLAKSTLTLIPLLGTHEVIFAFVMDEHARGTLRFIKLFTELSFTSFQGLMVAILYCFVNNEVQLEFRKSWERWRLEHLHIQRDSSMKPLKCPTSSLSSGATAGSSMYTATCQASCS

As usually defined, the Emax is the maximal effect, on the per cent scale that the assay sets. What is called EC50 is the concentration giving half of the maximal effect. Higher therefore signals a need for much substance. On to `COc1cc(C(=O)O)cc2c1nc(CN1CCc3cc(C(F)(F)F)c(OCc4ccc(Cl)cc4Cl)nc3[C@@H]1C)n2C[C@@H]1CCO1` [Compound I-377], for which the Emax is 126% and the response was half-maximal at 0.0176 nM (EC50).

Take `COc1cc(C(=O)O)cc2c1nc(CN1CCc3cc(C(F)(F)F)c(OCc4cc(F)c(Cl)cc4F)nc3[C@@H]1C)n2C[C@@H]1CCO1` [Compound I-378]: the Emax was 95.3% and a half-maximal response (EC50) required 0.0146 nM.

Turning to `COc1cc(C(=O)O)cc2c1nc(CN1CCc3cc(C(F)(F)F)c(OCc4c(F)cc(Cl)cc4F)nc3[C@@H]1C)n2C[C@@H]1CCO1` [Compound I-379], the Emax was determined as 96% and the EC50 was found to be 0.0121 nM.

Take `O=C(O)c1cc(F)c2nc(CN3CCc4cc(C(F)(F)F)c(OCc5ccc(Cl)cc5)nc4C3)n(C[C@@H]3CCO3)c2c1` [Compound I-380]: the Emax worked out at 108% and the EC50 came to 0.382 nM.

In the case of `Cc1ccc(COc2nc3c(cc2C(F)(F)F)CCN(Cc2nc4c(F)cc(C(=O)O)cc4n2C[C@@H]2CCO2)C3)cc1` [Compound I-381], the Emax is 116% and the concentration giving a half-maximal response (EC50) stood at 0.702 nM.

As to `COc1cc(Cl)ccc1COc1nc2c(cc1C(F)(F)F)CCN(Cc1nc3c(F)cc(C(=O)O)cc3n1C[C@@H]1CCO1)C2` [Compound I-382], the Emax was 125% and the EC50 turned out to be 0.159 nM.

For the compound `O=C(O)c1cc(F)c2nc(CN3CCc4cc(C(F)(F)F)c(OCc5ccc(F)cc5F)nc4C3)n(C[C@@H]3CCO3)c2c1` [Compound I-383], the Emax was found to be 109% and the EC50 worked out at 0.516 nM.

Take `O=C(O)c1cc(F)c2nc(CN3CCc4cc(C(F)(F)F)c(OCc5ccc(Cl)cc5Cl)nc4C3)n(C[C@@H]3CCO3)c2c1` [Compound I-384]: the Emax turned out to be 114% and it took 0.126 nM to reach a half-maximal effect (EC50).

As for `O=C(O)c1cc(F)c2nc(CN3CCc4cc(C(F)(F)F)c(OCc5ccc(Cl)cc5F)nc4C3)n(C[C@@H]3CCO3)c2c1` [Compound I-385], the Emax stood at 112%.

Consider `COc1cc(C(=O)O)cc2c1nc(CN1CCc3cc(C(F)(F)F)c(OCc4ccc(Cl)cc4)nc3C1)n2C[C@@H]1CCO1` [Compound I-386], for which the Emax was 112% and the EC50 worked out at 0.0877 nM.

For the compound `COc1cc(C(=O)O)cc2c1nc(CN1CCc3cc(C(F)(F)F)c(OCc4ccc(C)cc4)nc3C1)n2C[C@@H]1CCO1` [Compound I-387], the Emax was 122% and a half-maximal effect (EC50) was put at 0.178 nM.

As for `COc1cc(Cl)ccc1COc1nc2c(cc1C(F)(F)F)CCN(Cc1nc3c(OC)cc(C(=O)O)cc3n1C[C@@H]1CCO1)C2` [Compound I-388], the Emax is 115% and the EC50 was 0.0523 nM.

As to `COc1cc(C(=O)O)cc2c1nc(CN1CCc3cc(C(F)(F)F)c(OCc4ccc(Cl)cc4Cl)nc3C1)n2C[C@@H]1CCO1` [Compound I-389], the Emax was 115% and the EC50 amounted to 0.05 nM.

Consider `COc1cc(C(=O)O)cc2c1nc(CN1CCc3cc(C(F)(F)F)c(OCc4ccc(Cl)cc4F)nc3C1)n2C[C@@H]1CCO1` [Compound I-390], for which the Emax is 107% and the EC50 was found to be 0.046 nM.

Consider `C[C@H]1c2nc(OCc3ccc(Cl)cn3)c(C(F)(F)F)cc2CCN1Cc1nc2ccc(C(=O)O)nc2n1C[C@@H]1CCO1` [Compound I-391], for which the Emax came to 107% and the response was half-maximal at 0.396 nM (EC50).

On to `COc1cc(C(=O)O)cc2c1nc(CN1CCc3cc(C(F)(F)F)c(OCc4ccc(Cl)cn4)nc3[C@@H]1C)n2C[C@@H]1CCO1` [Compound I-392], for which the Emax is 135% and a half-maximal effect (EC50) was put at 0.0156 nM.

Consider `C[C@H]1c2nc(OCc3ccc(Cl)cc3F)c(I)cc2CCN1Cc1nc2ccc(C(=O)O)cc2n1C[C@@H]1CCO1` [Compound I-393], for which the Emax was found to be 121% and a half-maximal response (EC50) required 0.099 nM.

As for `C[C@H]1c2nc(OCc3ccc(Cl)cc3F)c(C(F)F)cc2CCN1Cc1nc2ccc(C(=O)O)cc2n1C[C@@H]1CCO1` [Compound I-394], the maximal effect (Emax) turned out to be 108% and it took 0.0497 nM to reach a half-maximal effect (EC50).
